A short description of this data set: Solubility test of xylose in solvent systems suitable as organosolv treatment liquid. Type of data set: physicochemical. The settings on record: 20° C., stirred 24 h, based on total weight of the xylose added. On the procedure:
The solubility of xylose (>99% pure, VWR) in different solvent systems, that are suitable to be used as treatment liquid during organosolv, is tested. Xylose was used as representative of all monomeric sugars, as it is the most abundant carbohydrate found in hemicellulose present in hardwoods and herbaceous biomass and thus in corresponding organosolv liquors. The indicated amount of xylose was added to each solvent system at 20° C. and the suspension was mechanically stirred for 24 h. Hereafter, the saturated solution containing remaining xylose was allowed to settle for 3 h and the liquid was removed. The residue was dried and the amount of undissolved xylose was determined.

The values below come from patent publication US10793927B2, “Separation of lignin and sugars from biomass pre-treatment liquors” (Stichting Energieonderzoek Centrum Nederland, priority 2015, dated 2020).

Consider `O=C[C@H](O)[C@@H](O)[C@H](O)CO` [xylose], for which the xylose not dissolved is reported as 99.1 wt % (acetone (100%), 2.7 wt % xylose added); 82.2 wt % (ethanol (100%), 2.5 wt % xylose added); 99.1 wt % (water/acetone 1.9/98.1 (w/w), 2.7 wt % xylose added); 93.0 wt % (water/acetone 4.9/95.1 (w/w), 2.7 wt % xylose added); 79.1 wt % (water/acetone 8.4/91.6 (w/w), 2.0 wt % xylose added); 80.2 wt % (water/acetone 9.9/90.1 (w/w), 2.3 wt % xylose added). Moreover, the xylose not dissolved is on record as 49.7 wt % (water/ethanol 4.3/95.7 (w/w), 2.2 wt % xylose added); 46.2 wt % (water/ethanol 4.7/95.3 (w/w), 2.3 wt % xylose added); 16.6 wt % (water/ethanol 7.8/92.2 (w/w), 2.3 wt % xylose added); 0.0 wt % (water/ethanol 9.7/90.3 (w/w), 2.3 wt % xylose added).
